Read-outs that look alike come from different tables or passages of the source.
Legend:
1b (BK) NS5bΔ21 = 1b (BK) NS5bΔ21 (Hepatitis C virus genotype 1b (isolate BK) (HCV), UniProt P26663); test: HCV polymerase inhibition assay, genotype 1b; assay type: biochemical, HCV genotype 1b (BK)
Method in brief: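 Both genotype 1b and 3a enzymes assayed identically: ^33P-GTP incorporation on poly(rC) template, GTP at Km, 50 nM NS5bΔ21, pH 7.5 Tris with 5 mM MgCl2 and MnCl2, 1 h reaction ended by cold EDTA. Filter-bound label counted; IC50 fitted by non-linear regression across three-fold dilution series.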

[1] = tested on: subgenomic genotype 1a replicon cell line; test: HCV replicon assay, genotype 1a; assay type: cell-based, HCV genotype 1a
Experimental: (§1) A genotype 1b (Con 1) subgenomic replicon cell line based on Blight et al., Science 2000 290: 1972-1974, modified to express a Renilla luciferase reporter gene was used to assess antiviral activity of test compounds. Cell cultures were maintained in a sub-confluent state in DMEM with glutamine, 10% heat-inactivated foetal bovine serum (FBS) and G418 (Geneticin®).
(§2) For assay, cells were seeded at a density of 7000 cells/well into 96 well tissue culture trays in culture media lacking G418. Compounds were tested in a three fold dilution series, for example starting from 50 uM. After 72 hours incubation at 37° C. and 5% CO2, Renilla luciferase activity was quantified via the Promega Renilla Luciferase or Renilla-Glo™ Luciferase Assay Systems (Promega corporation. The same method was employed for replicon assays using subgenomic genotype 1a and 2a replicon cell lines with a seeding cell density of 5000 cells/well for the 2a cell lines.
(§3) The compound concentration that reduced luciferase activity by 50% (EC50) was calculated using non-linear regression.

[2] = tested on: subgenomic genotype 2a replicon cell line; test: HCV replicon assay, genotype 2a; assay type: cell-based, HCV genotype 2a
Experimental: as §1, §2, §3

[3] = tested on: genotype 1b (Con 1) subgenomic replicon cell line; test: HCV replicon assay, genotype 1b (Renilla luciferase); assay type: cell-based, HCV genotype 1b (Con 1); details: genotype 1b replicon
Method in brief: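 Subgenomic replicon cells expressing Renilla luciferase (1b Con1; 1a and 2a lines by the same method) seeded at 7000 cells/well (5000 for 2a) without G418, exposed to 3-fold compound dilutions for 72 h at 37 °C. Luciferase activity measured; EC50 by non-linear regression.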

[4] = target: genotype 3a (VRL-69) NS5bΔ21 polymerase (Hepatitis C virus genotype 3a, UniProt Q81258); test: HCV polymerase inhibition assay, genotype 3a; assay type: biochemical, HCV genotype 3a (VRL-69)
Chain of genotype 3a (VRL-69) NS5bΔ21 polymerase (Q81258 whole entry, looked up, stated change not applied): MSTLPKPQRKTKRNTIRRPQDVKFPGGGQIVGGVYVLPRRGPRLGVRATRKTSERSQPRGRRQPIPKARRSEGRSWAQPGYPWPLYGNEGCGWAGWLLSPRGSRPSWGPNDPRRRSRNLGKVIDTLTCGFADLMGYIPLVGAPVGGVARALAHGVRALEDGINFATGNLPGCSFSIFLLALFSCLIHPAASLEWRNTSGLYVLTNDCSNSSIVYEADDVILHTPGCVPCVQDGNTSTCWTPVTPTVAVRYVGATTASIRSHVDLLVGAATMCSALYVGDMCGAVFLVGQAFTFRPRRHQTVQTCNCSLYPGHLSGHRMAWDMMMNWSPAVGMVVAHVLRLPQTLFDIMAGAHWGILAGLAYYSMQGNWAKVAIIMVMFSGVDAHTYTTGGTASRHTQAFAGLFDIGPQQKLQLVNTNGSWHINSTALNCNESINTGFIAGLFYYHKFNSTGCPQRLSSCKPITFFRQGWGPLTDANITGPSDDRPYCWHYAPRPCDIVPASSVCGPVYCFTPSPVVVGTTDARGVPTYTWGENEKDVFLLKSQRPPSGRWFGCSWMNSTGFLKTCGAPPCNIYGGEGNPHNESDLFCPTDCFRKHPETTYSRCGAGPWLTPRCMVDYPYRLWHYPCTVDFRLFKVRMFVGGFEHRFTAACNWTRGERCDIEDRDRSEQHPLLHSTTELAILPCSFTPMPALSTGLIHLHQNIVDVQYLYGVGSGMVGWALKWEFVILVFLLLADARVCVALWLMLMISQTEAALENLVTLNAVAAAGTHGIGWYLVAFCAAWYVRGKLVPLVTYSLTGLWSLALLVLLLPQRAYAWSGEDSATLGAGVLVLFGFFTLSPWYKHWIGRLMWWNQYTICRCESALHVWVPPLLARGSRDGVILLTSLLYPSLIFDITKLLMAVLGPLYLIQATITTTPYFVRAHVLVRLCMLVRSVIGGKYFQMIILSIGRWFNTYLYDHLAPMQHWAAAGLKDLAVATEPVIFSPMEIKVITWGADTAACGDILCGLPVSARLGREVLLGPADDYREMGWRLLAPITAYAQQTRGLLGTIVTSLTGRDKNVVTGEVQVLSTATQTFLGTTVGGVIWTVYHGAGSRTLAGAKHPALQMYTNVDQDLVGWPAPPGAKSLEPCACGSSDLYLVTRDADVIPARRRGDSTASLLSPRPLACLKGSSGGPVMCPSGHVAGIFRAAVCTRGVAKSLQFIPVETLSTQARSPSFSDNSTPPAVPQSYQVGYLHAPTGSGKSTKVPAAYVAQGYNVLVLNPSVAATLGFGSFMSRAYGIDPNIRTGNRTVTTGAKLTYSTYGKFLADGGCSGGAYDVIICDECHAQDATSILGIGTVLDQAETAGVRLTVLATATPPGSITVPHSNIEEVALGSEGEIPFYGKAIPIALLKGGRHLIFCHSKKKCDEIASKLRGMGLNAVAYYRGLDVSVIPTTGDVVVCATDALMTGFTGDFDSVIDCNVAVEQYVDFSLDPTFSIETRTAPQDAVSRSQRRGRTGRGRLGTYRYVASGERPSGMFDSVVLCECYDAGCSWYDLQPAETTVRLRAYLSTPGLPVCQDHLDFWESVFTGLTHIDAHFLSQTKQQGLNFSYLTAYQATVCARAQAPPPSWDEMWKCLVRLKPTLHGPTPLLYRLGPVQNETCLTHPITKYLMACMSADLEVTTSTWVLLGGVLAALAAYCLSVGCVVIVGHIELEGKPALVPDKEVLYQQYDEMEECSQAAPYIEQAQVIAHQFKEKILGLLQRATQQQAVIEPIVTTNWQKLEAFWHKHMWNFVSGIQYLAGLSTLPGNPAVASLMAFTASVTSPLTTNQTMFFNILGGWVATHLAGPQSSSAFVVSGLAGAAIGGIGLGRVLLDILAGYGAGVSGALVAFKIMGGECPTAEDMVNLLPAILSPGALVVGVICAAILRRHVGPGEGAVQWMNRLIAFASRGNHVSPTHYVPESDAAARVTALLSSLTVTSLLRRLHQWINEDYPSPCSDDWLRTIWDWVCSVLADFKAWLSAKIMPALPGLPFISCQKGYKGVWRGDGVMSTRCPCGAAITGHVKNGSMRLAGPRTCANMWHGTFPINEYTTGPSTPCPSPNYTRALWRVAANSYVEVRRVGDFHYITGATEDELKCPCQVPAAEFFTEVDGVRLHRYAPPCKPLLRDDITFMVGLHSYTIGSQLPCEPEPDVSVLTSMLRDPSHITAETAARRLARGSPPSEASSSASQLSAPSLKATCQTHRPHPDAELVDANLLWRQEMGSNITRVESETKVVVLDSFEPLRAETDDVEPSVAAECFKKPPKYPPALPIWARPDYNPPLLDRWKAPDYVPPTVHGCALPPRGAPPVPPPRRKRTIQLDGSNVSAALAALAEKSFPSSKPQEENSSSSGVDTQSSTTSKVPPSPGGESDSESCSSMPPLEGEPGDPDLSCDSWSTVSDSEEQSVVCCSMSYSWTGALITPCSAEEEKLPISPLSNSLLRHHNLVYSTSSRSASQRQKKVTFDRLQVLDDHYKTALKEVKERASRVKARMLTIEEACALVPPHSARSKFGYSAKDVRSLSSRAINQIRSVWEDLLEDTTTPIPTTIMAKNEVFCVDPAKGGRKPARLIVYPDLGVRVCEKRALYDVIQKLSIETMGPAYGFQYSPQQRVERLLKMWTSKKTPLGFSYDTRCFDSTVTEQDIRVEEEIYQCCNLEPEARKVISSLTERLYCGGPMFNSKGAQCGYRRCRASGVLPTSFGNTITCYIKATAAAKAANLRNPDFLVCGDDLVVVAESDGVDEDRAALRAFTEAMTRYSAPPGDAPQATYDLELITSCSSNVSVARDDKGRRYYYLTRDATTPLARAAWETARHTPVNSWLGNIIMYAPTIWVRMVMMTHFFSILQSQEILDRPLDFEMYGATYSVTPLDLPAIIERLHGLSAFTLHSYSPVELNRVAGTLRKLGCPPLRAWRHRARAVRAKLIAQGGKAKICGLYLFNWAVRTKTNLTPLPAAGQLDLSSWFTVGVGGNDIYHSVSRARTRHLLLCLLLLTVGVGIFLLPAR
Experimental: HCV polymerase reactions were carried out using a modified method of Howe et al., Antimicrobial Agents and Chemotherapy 2004 48(12): 4813-4821. Reactions contained a final concentration of, 0.5% DMSO, 50 nM, 1b (BK) NS5bΔ21, 20 mM Tris-HCl pH 7.5, 5 mM MgCl2, 5 mM MnCl2, 3 mM DTT, 0.05% BSA, 0.2 U/μL RNasin, 10 μg/mL Poly(rC) template, GTP (at Km) and 0.05 μCi/μL ^33P-GTP in a total reaction volume of 50 μL. Compounds were tested in a three fold dilution series, for example starting from 50 μM. Reactions were initiated with the addition of GTP and terminated after 1 hour with 50 μL ice cold 0.2 M EDTA. Terminated reactions were transferred to DEAE 96-well filter plates, unincorporated nucleotides washed from the filters and 50 μL scintillation fluid added prior to reading on a scintillation counter. Similarly, a genotype 3a (VRL-69) NS5bΔ21 polymerase enzyme assay was conducted using essentially the same method.
The compound concentration that reduced ^33P-GTP incorporation by 50% (IC50) was calculated using non-linear regression.

[5] = 1b (BK) NS5bΔ21, 33P-GTP incorporation, read-out: 1b polymerase IC50 (range class)
[6] = genotype 1b, read-out: 1b NS5b polymerase IC50
[7] = Hepatitis C virus, 72 hours, luciferase, read-out: genotype 1b EC50 (range class)
[8] = Hepatitis C virus, read-out: Replicon 1b EC50
[9] = genotype 3a, read-out: 3a NS5b polymerase IC50

Chain of 1b (BK) NS5bΔ21 (P26663 2420-2989): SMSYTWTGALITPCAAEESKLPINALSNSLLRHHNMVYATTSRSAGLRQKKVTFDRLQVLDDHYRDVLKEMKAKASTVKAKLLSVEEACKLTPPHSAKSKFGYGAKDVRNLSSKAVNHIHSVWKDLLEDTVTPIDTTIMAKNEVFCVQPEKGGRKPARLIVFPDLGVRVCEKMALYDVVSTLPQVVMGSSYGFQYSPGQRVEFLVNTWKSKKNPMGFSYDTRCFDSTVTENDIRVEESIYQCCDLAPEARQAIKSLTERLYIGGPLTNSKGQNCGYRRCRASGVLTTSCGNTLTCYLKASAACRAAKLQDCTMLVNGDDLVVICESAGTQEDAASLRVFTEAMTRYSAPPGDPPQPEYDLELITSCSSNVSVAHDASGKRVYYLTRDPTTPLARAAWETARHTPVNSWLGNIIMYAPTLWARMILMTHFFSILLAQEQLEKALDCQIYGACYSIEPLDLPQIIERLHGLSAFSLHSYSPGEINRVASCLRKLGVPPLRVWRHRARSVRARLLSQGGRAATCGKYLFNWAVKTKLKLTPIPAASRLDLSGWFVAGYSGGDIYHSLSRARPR

| SMILES | IC50 (1b (BK) NS5bΔ21; [5]) [nM] | IC50 (1b (BK) NS5bΔ21; [6]) [nM] | EC50 [3, 7] [nM] | IC50 [4, 9] [nM] | also measured |
| --- | --- | --- | --- | --- | --- |
| CNC(=O)c1c2cc(C3CC3)c(N(CCCO)S(C)(=O)=O)cc2nn1-c1ccc(Br)cc1 [Compound 4, 2-(4-bromophenyl)-5-cyclopropyl-6-[(3-hydroxypropyl)(methylsulfonyl)amino]-N-methyl-2H-indazole-3-carboxamide] | < 990 | 170 | < 990 | 10 | EC50 ([1]; Hepatitis C virus): 210 nM; EC50 ([2]; Hepatitis C virus): 940 nM; EC50 [3, 8]: 90 nM |
| CNC(=O)c1c2cc(C3CC3)c(N(CCCO)S(C)(=O)=O)cc2nn1-c1ccc(Nc2ccccc2F)cc1 [Compound 5, 5-cyclopropyl-2-{4-[(2-fluorophenyl)amino]phenyl}-6-[(3-hydroxypropyl)(methylsulfonyl)amino]-N-methyl-2H-indazole-3-carboxamide] | < 990 | 70 | < 990 | 40 | EC50 ([1]; Hepatitis C virus): 50 nM; EC50 ([2]; Hepatitis C virus): 320 nM; EC50 [3, 8]: 130 nM |
| CNC(=O)c1c2cc(C3CC3)c(N(CCCO)S(C)(=O)=O)cc2nn1-c1ccc(Nc2ccc(F)cc2)cc1 [Compound 21] | < 990 | 40 | < 990 | 40 | EC50 ([1]; Hepatitis C virus): 290 nM; EC50 ([2]; Hepatitis C virus): 340 nM; EC50 [3, 8]: 460 nM |
| CCN(c1cc2nn(-c3ccc(Nc4ccc(F)cc4)cc3)c(C(=O)NC)c2cc1C1CC1)S(C)(=O)=O [Compound 22] | < 990 | 110 | < 990 | 20 | EC50 ([1]; Hepatitis C virus): 380 nM; EC50 ([2]; Hepatitis C virus): 340 nM; EC50 [3, 8]: 70 nM |
| CCN(c1cc2nn(-c3ccc(Oc4ccccc4F)cc3)c(C(=O)NC)c2cc1C1CC1)S(C)(=O)=O [Compound 28] | < 990 | 120 | < 990 | 20 | EC50 ([1]; Hepatitis C virus): 740 nM; EC50 ([2]; Hepatitis C virus): 200 nM; EC50 [3, 8]: 100 nM |
| CNC(=O)c1c2cc(C3CC3)c(N(CCCO)S(C)(=O)=O)cc2nn1-c1ccc(Cl)cc1 [Compound 54, 2-(4-Chlorophenyl-1)-5-cyclopropyl-6-[3-hydroxypropyl(methylsulfonyl)amino]-N-methyl-indazole-3-carboxamide] | – | 360 | – | 20 | EC50 [1]: 300 nM; EC50 [2]: 1030 nM; EC50 ([3]; read-out: Replicon 1b EC50): 100 nM |
| CNC(=O)c1c2cc(C3CC3)c(N(CCCNC(C)=O)S(C)(=O)=O)cc2nn1-c1ccc(Br)cc1 [Compound 59, 6-{[3-(Acetylamino)propyl](methylsulfonyl)amino}-2-(4-bromophenyl)-5-cyclopropyl-N-methyl-2H-indazole-3-carboxamide] | < 990 | 260 | < 990 | 50 | EC50 ([1]; Hepatitis C virus): 300 nM; EC50 ([2]; Hepatitis C virus): 1430 nM; EC50 [3, 8]: 670 nM |
| CNC(=O)c1c2cc(C3CC3)c(N(CCCNC(=O)C3CCC3)S(C)(=O)=O)cc2nn1-c1ccc(Br)cc1 [Compound 62] | – | 180 | – | 50 | EC50 [1]: 80 nM; EC50 [2]: 2860 nM; EC50 ([3]; read-out: Replicon 1b EC50): 170 nM |
| CNC(=O)c1c2cc(C3CC3)c(N(CCCNC(=O)CCC(=O)OC)S(C)(=O)=O)cc2nn1-c1ccc(Br)cc1 [Compound 66, Methyl 4-[(3-{[2-(4-bromophenyl)-5-cyclopropyl-3-(methylcarbamoyl)-2H-indazol-6-yl](methylsulfonyl)amino}propyl)amino]-4-oxobutanoate] | < 990 | 320 | < 990 | – | EC50 ([1]; Hepatitis C virus): 20 nM; EC50 ([2]; Hepatitis C virus): 360 nM; EC50 [3, 8]: 120 nM; IC50 [4]: 80 nM |
| CNC(=O)c1c2cc(C3CC3)c(N(CCC3COC(C)(C)OC3)S(C)(=O)=O)cc2nn1-c1ccc(Br)cc1 [Compound 95] | – | 70 | – | 40 | EC50 [1]: 70 nM; EC50 [2]: 180 nM; EC50 ([3]; read-out: Replicon 1b EC50): 50 nM |
| C=CCN(c1cc2nn(-c3ccc(Br)cc3)c(C(=O)NC)c2cc1C1CC1)S(C)(=O)=O [Compound 98] | – | 100 | – | 30 | EC50 [1]: 160 nM; EC50 [2]: 460 nM; EC50 ([3]; read-out: Replicon 1b EC50): 80 nM |
| CNC(=O)c1c2cc(C3CC3)c(N(CCCNC(=O)c3ncoc3C)S(C)(=O)=O)cc2nn1-c1ccc(Br)cc1 [Compound 174] | < 990 | – | < 990 | – | EC50 ([1]; Hepatitis C virus): 60 nM; EC50 ([2]; Hepatitis C virus): 1730 nM; EC50 [3, 8]: 110 nM |
| CCN(c1cc2nn(-c3ccc(Cl)c(F)c3)c(C(=O)NC)c2cc1C1CC1)S(C)(=O)=O [Compound 239] | < 990 | – | < 990 | – | – |
| CNC(=O)c1c2cc(C3CC3)c(N(CCF)S(C)(=O)=O)cc2nn1-c1ccc(Br)cc1 [Compound 241] | < 990 | – | < 990 | – | – |
| CNC(=O)c1c2cc(C3CC3)c(N(CCCNC(=O)C(C)C)S(C)(=O)=O)cc2nn1-c1ccc(Cl)cc1 [Compound 242] | < 990 | – | < 990 | – | – |
| CNC(=O)c1c2cc(C3CC3)c(N(CCCOC)S(C)(=O)=O)cc2nn1-c1ccc(Cl)cc1 [Compound 243] | < 990 | – | < 990 | – | – |
| CCN(c1cc2nn(-c3ccc(C)c(F)c3)c(C(=O)NC)c2cc1C1CC1)S(C)(=O)=O [Compound 244] | < 990 | – | < 990 | – | – |
| CNC(=O)c1c2cc(C3CC3)c(N(CCC(F)(F)F)S(C)(=O)=O)cc2nn1-c1ccc(Cl)cc1 [Compound 245] | < 990 | – | < 990 | – | – |
| CNC(=O)c1c2cc(C3CC3)c(N(CC3CC3)S(C)(=O)=O)cc2nn1-c1ccc(Cl)cc1 [Compound 246] | < 990 | – | < 990 | – | – |
| CNC(=O)c1c2cc(C3CC3)c(N(CCF)S(C)(=O)=O)cc2nn1-c1ccc(Cl)cc1 [Compound 247] | < 990 | – | < 990 | – | – |
| CNC(=O)c1c2cc(C3CC3)c(N(CC3CCOCC3)S(C)(=O)=O)cc2nn1-c1ccc(Cl)cc1 [Compound 249] | < 990 | – | < 990 | – | – |
| CNC(=O)c1c2cc(C3CC3)c(N(CCC3CCOCC3)S(C)(=O)=O)cc2nn1-c1ccc(Cl)cc1 [Compound 250] | < 990 | – | < 990 | – | – |
| CNC(=O)c1c2cc(C3CC3)c(N(CCCNC(=O)[C@H]3CCCC[C@H]3C(=O)O)S(C)(=O)=O)cc2nn1-c1ccc(Br)cc1 [Compound 251] | < 990 | – | < 990 | – | – |
| CNC(=O)c1c2cc(C3CC3)c(N(CC3CCOC3)S(C)(=O)=O)cc2nn1-c1ccc(Cl)cc1 (centres unmarked) [Compound 252] | < 990 | – | < 990 | – | – |
| CNC(=O)c1c2cc(C3CC3)c(N(CC(F)F)S(C)(=O)=O)cc2nn1-c1ccc(Br)cc1 [Compound 253] | < 990 | – | < 990 | – | – |
| CNC(=O)c1c2cc(C3CC3)c(N(CC(F)F)S(C)(=O)=O)cc2nn1-c1ccc(Cl)cc1 [Compound 254] | < 990 | – | < 990 | – | – |
| CCN(c1cc2nn(-c3ccc(NC)nc3)c(C(=O)NC)c2cc1C1CC1)S(C)(=O)=O [Compound 255] | < 990 | – | < 990 | – | – |
| CNC(=O)c1c2cc(C3CC3)c(N(CCC3CCOC3)S(C)(=O)=O)cc2nn1-c1ccc(Br)cc1 (centres unmarked) [Compound 256] | < 990 | – | < 990 | – | – |
| CNC(=O)c1c2cc(C3CC3)c(N(CCC3CCOC3)S(C)(=O)=O)cc2nn1-c1ccc(Cl)cc1 (centres unmarked) [Compound 257] | 1000 to 9990 | – | < 990 | – | – |
| CCN(c1cc2nn(-c3ccc(Br)cc3)c(C(=O)NC)c2cc1C1CC1)S(=O)(=O)C(F)(F)F [Compound 258] | 1000 to 9990 | – | 1000 to 9990 | – | – |

— patent publication US8546389B2 (priority 2010, dated 2013)
